Read-outs that look alike come from different tables or passages of the source.
Legend:
Assay in all cases: biochemical
Assay type in all cases: biochemical
[1] = molecular target: panel of 391 kinases (Homo sapiens, UniProt O00311); details: CDC7/DBF4, MK-28 1 µM, ATP 1 µM
[2] = molecular target: panel of 391 kinases (Homo sapiens, UniProt O14965); details: Aurora A, MK-28 1 µM, ATP 1 µM
[3] = molecular target: panel of 391 kinases (Homo sapiens, UniProt O94921); details: CDK14/cyclin Y (PFTK1), MK-28 1 µM, ATP 1 µM
[4] = molecular target: panel of 391 kinases (Homo sapiens, UniProt P04049); details: RAF1, MK-28 1 µM, ATP 1 µM
[5] = molecular target: panel of 391 kinases (Homo sapiens, UniProt P06239); details: LCK, MK-28 1 µM, ATP 1 µM
[6] = molecular target: panel of 391 kinases (Homo sapiens, UniProt P16234); details: PDGFRa, MK-28 1 µM, ATP 1 µM
[7] = molecular target: panel of 391 kinases (Homo sapiens, UniProt P17252); details: PKCa, MK-28 1 µM, ATP 1 µM
[8] = molecular target: panel of 391 kinases (Homo sapiens, UniProt P17612); details: PKA, MK-28 1 µM, ATP 1 µM
[9] = molecular target: panel of 391 kinases (Homo sapiens, UniProt P19525); details: kinase EIF2AK2, compound at 1 µM, single dose in duplicates, 1 µM ATP
[10] = molecular target: panel of 391 kinases (Homo sapiens, UniProt P24941); details: MK-28 1 µM, ATP 1 µM; for remaining activity at 1 µM: read-out: % Enzyme Activity (relative to DMSO controls)
[11] = molecular target: panel of 391 kinases (Homo sapiens, UniProt P29323); details: EPHB2, MK-28 1 µM, ATP 1 µM
[12] = molecular target: panel of 391 kinases (Homo sapiens, UniProt P36507); details: MEK2, MK-28 1 µM, ATP 1 µM
[13] = molecular target: panel of 391 kinases (Homo sapiens, UniProt P53667); details: LIMK1, MK-28 1 µM, ATP 1 µM
[14] = molecular target: panel of 391 kinases (Homo sapiens, UniProt Q02779); details: MLK2/MAP3K10, MK-28 1 µM, ATP 1 µM
[15] = molecular target: panel of 391 kinases (Homo sapiens, UniProt Q05655); details: PKCd, MK-28 1 µM, ATP 1 µM
[16] = molecular target: panel of 391 kinases (Homo sapiens, UniProt Q08881); details: ITK, MK-28 1 µM, ATP 1 µM
[17] = molecular target: panel of 391 kinases (Homo sapiens, UniProt Q13882); details: BRK, MK-28 1 µM, ATP 1 µM
[18] = molecular target: panel of 391 kinases (Homo sapiens, UniProt Q5TCY1); details: TTBK1, MK-28 1 µM, ATP 1 µM
[19] = molecular target: panel of 391 kinases (Homo sapiens, UniProt Q6DT37); details: DMPK2, MK-28 1 µM, ATP 1 µM
[20] = molecular target: panel of 391 kinases (Homo sapiens, UniProt Q9H2K8); details: TAOK3/JIK, MK-28 1 µM, ATP 1 µM
[21] = molecular target: panel of 391 kinases (Homo sapiens, UniProt Q9H2X6); details: HIPK2, MK-28 1 µM, ATP 1 µM
[22] = molecular target: panel of 391 kinases (Homo sapiens, UniProt Q9H4A3); details: WNK1, MK-28 1 µM, ATP 1 µM
[23] = molecular target: panel of 391 kinases (Homo sapiens, UniProt Q9NYL2); details: ZAK/MLTK, MK-28 1 µM, ATP 1 µM
[24] = molecular target: panel of 391 kinases (Homo sapiens, UniProt Q9P286); details: PAK5, MK-28 1 µM, ATP 1 µM
[25] = molecular target: panel of 391 kinases (Homo sapiens, UniProt Q9Y6M4); details: CK1g3, MK-28 1 µM, ATP 1 µM
[26] = read-out: % Enzyme Activity (relative to DMSO controls)

Question: For CN(/N=C\c1ccc(O)c(O)c1)c1nc(-c2ccccc2)cc(-c2ccccc2)n1 [MK-28], which “% Enzyme Activity (relative to DMSO controls)” value [1] is on record?
Answer: 105.60%

Question: And the remaining activity at 1 µM [1, 26]?
Answer: 113%

Question: What about the “% Enzyme Activity (relative to DMSO controls)” value [2] of the same molecule?
Answer: 71.13%

Question: And the remaining activity at 1 µM [2, 26]?
Answer: 73.2%

Question: What about the “% Enzyme Activity (relative to DMSO controls)” value [3] of the same molecule?
Answer: 103.85%

Question: What about the remaining activity at 1 µM [3, 26] of the same molecule?
Answer: 105%

Question: What about the “% Enzyme Activity (relative to DMSO controls)” value [4] of the same molecule?
Answer: 93.95%

Question: And the remaining activity at 1 µM [4, 26]?
Answer: 94.3%

Question: And the “% Enzyme Activity (relative to DMSO controls)” value [5]?
Answer: 116.76%

Question: And the remaining activity at 1 µM [5, 26]?
Answer: 117%

Question: What about the “% Enzyme Activity (relative to DMSO controls)” value [6] of the same molecule?
Answer: 97.43%

Question: What about the remaining activity at 1 µM [6, 26] of the same molecule?
Answer: 97.7%

Question: And the “% Enzyme Activity (relative to DMSO controls)” value [7]?
Answer: 89.76%

Question: What about the remaining activity at 1 µM [7, 26] of the same molecule?
Answer: 92.7%

Question: And the “% Enzyme Activity (relative to DMSO controls)” value [8]?
Answer: 91.97%

Question: And the remaining activity at 1 µM [8, 26]?
Answer: 93%

Question: What about the “% Enzyme Activity (relative to DMSO controls)” value [9] of the same molecule?
Answer: 97.81%

Question: And the remaining activity at 1 µM [9, 26]?
Answer: 99%

Question: What about the “% Enzyme Activity (relative to DMSO controls)” value ([10]; CDK2/Cyclin A1) of the same molecule?
Answer: 112.90%

Question: And the remaining activity at 1 µM ([10]; CDK2/Cyclin A1)?
Answer: 118%

Question: And the “% Enzyme Activity (relative to DMSO controls)” value ([10]; CDK2/cyclin A)?
Answer: 102.50%

Question: And the remaining activity at 1 µM ([10]; CDK2/cyclin A)?
Answer: 104%

Question: What about the “% Enzyme Activity (relative to DMSO controls)” value ([10]; CDK2/cyclin E2) of the same molecule?
Answer: 99.65%

Question: What about the remaining activity at 1 µM ([10]; CDK2/cyclin E2) of the same molecule?
Answer: 100%

Question: And the “% Enzyme Activity (relative to DMSO controls)” value ([10]; CDK2/cyclin E)?
Answer: 95.41%

Question: What about the remaining activity at 1 µM ([10]; CDK2/cyclin E) of the same molecule?
Answer: 97%

Question: And the “% Enzyme Activity (relative to DMSO controls)” value ([10]; CDK2/cyclin O)?
Answer: 124.92%

Question: What about the remaining activity at 1 µM ([10]; CDK2/cyclin O) of the same molecule?
Answer: 126%

Question: What about the “% Enzyme Activity (relative to DMSO controls)” value [11] of the same molecule?
Answer: 94.59%

Question: What about the remaining activity at 1 µM [11, 26] of the same molecule?
Answer: 95.4%

Question: What about the “% Enzyme Activity (relative to DMSO controls)” value [12] of the same molecule?
Answer: 98.80%

Question: What about the remaining activity at 1 µM [12, 26] of the same molecule?
Answer: 99.9%

Question: And the “% Enzyme Activity (relative to DMSO controls)” value [13]?
Answer: 93.55%

Question: What about the remaining activity at 1 µM [13, 26] of the same molecule?
Answer: 101%

Question: What about the “% Enzyme Activity (relative to DMSO controls)” value [14] of the same molecule?
Answer: 95.47%

Question: And the remaining activity at 1 µM [14, 26]?
Answer: 100%

Question: What about the “% Enzyme Activity (relative to DMSO controls)” value [15] of the same molecule?
Answer: 97.74%

Question: What about the remaining activity at 1 µM [15, 26] of the same molecule?
Answer: 98.5%

Question: And the “% Enzyme Activity (relative to DMSO controls)” value [16]?
Answer: 92.03%

Question: And the remaining activity at 1 µM [16, 26]?
Answer: 92.4%

Question: What about the “% Enzyme Activity (relative to DMSO controls)” value [17] of the same molecule?
Answer: 102.30%

Question: And the remaining activity at 1 µM [17, 26]?
Answer: 104%

Question: What about the “% Enzyme Activity (relative to DMSO controls)” value [18] of the same molecule?
Answer: 93.65%

Question: What about the remaining activity at 1 µM [18, 26] of the same molecule?
Answer: 99%

Question: What about the “% Enzyme Activity (relative to DMSO controls)” value [19] of the same molecule?
Answer: 101.16%

Question: What about the remaining activity at 1 µM [19, 26] of the same molecule?
Answer: 106%

Question: And the “% Enzyme Activity (relative to DMSO controls)” value [20]?
Answer: 100.19%

Question: What about the remaining activity at 1 µM [20, 26] of the same molecule?
Answer: 103%

Question: What about the “% Enzyme Activity (relative to DMSO controls)” value [21] of the same molecule?
Answer: 122.10%

Question: And the remaining activity at 1 µM [21, 26]?
Answer: 124%

Question: And the “% Enzyme Activity (relative to DMSO controls)” value [22]?
Answer: 103.91%

Question: What about the remaining activity at 1 µM [22, 26] of the same molecule?
Answer: 104%

Question: What about the “% Enzyme Activity (relative to DMSO controls)” value [23] of the same molecule?
Answer: 104.97%

Question: And the remaining activity at 1 µM [23, 26]?
Answer: 105%

Question: And the “% Enzyme Activity (relative to DMSO controls)” value [24]?
Answer: 72.57%

Question: What about the remaining activity at 1 µM [24, 26] of the same molecule?
Answer: 77.2%

Question: And the “% Enzyme Activity (relative to DMSO controls)” value [25]?
Answer: 76.84%

Question: What about the remaining activity at 1 µM [25, 26] of the same molecule?
Answer: 80.6%
